Data on one molecule can be found in EP0061056A1, “5,6-Dimethylpyrrolo (2,3-b) pyridines, process for their preparation and their use as medicaments” (Troponwerke GmbH & Co. KG, priority 1981, dated 1982).

This assay relates to Kaolinödem der Rattenpfote. The experiment in a line: Kaolin-induced rat paw oedema (inhibition of inflammation). The assay is classed as in vivo, Ratte. Particulars: kaolin oedema of the rat paw. The protocol:
Die tierexperimentelle Prüfung der erfindungsgemäßen Verbindungen ergab, daß ein Teil dieser Substanzen sedative und antikonvulsive Eigenschaften besitzt. Darüber hinaus führen sie auch zu einer Hemmung der Entzündung, gemessen an der Beeinflussen des Pfotenödems der Ratte nach Kaolininjektion.
Bei oraler Applikation zeigen die erfindungsgemäßen Verbindungen eine signifikante entzündungshemmende Wirkung am Kaolinödem der Rattenpfote nach Gaben von 25 mg/kg. Bei intramuskulärer Applikation zeigen die Verbindungen bereits bei Dosierung von 10 mg/kg eine deutliche Hemmung der Entzündung. Für die Verbindung des Beispiels 1 beträgt die DE 50 bei oraler Applikation 68 mg/kg und die DE50 bei intramuskulärer Applikation 0,9 mg/kg.

Read-outs that look alike come from different tables or passages of the source.

As to `Cc1c(C)n(-c2ccccc2)c2nccc(N)c12` [Beispiel 1, 4-Amino-5,6-dimethyl-7-phenyl-pyrrolo[2,3-b]-7-pyridin], the ED50 reads like this: (im, intramuscular application, read-out: DE50 (the source's name)) 0.9 mg/kg; (oral application, read-out: DE 50 (the source's name)) 68 mg/kg.
